Values after ≈ are worked out from the molar mass of the structure shown.
What was measured:
PC-3 = test: Cytotoxicity against human PC-3 cells; format: functional; settings: for EC50: Homo sapiens, PC-3, read-out: ED50 (the source's name)
MIA PaCa-2 = test: Cytotoxicity against human MIA PaCa2 cells; format: functional; settings: for EC50: Homo sapiens, MIA PaCa-2, read-out: ED50 (the source's name)
[1] = Toxicity in brine shrimp; format: organism-based; settings: artemia, in vivo
A549 = test: Cytotoxicity against human A549 cells; format: functional; settings: for EC50: Homo sapiens, A549, read-out: ED50 (the source's name)
MCF7 = test: Cytotoxicity against human MCF7 cells; format: functional; settings: for EC50: Homo sapiens, MCF7, read-out: ED50 (the source's name)
HT-29 = test: Cytotoxicity against human HT-29 cells; format: functional; settings: Homo sapiens, HT-29; read-out: ED50 (the source's name)
A498 = test: Cytotoxicity against human A-498 cells; format: functional; settings: Homo sapiens, A498; read-out: ED50 (the source's name)

| Structure (SMILES) | EC50 (PC-3) [µg/mL] | EC50 (MIA PaCa-2) [µg/mL] | LC50 [1] [µg/mL] | EC50 (A549) [µg/mL] | EC50 (MCF7) [µg/mL] | EC50 (HT-29) [µg/mL] | EC50 (A498) [µg/mL] | ED50 (PC-3) [×10⁻⁴ ug/ml] | ED50 (MIA PaCa-2) [×10⁻⁴ ug/ml] | ED50 (A549) [×10⁻⁸ ug/ml] | ED50 (MCF7) |
| --- | --- | --- | --- | --- | --- | --- | --- | --- | --- | --- | --- |
| CCCCCCCCCCCC/C=C\CC[C@@H](O)[C@H]1CC[C@H]([C@H](O)CC[C@H](O)CCCCC[C@H]2CC(CC(C)=O)C(=O)O2)O1 (mixture of isomers) | 1.5 | 0.045 | < 0.3 | 1.8 | 3.7 | 2.9 | 2.2 | – | – | – | – |
| CCCCCCCCCCCCCCCC[C@@H](O)[C@H]1CC[C@H]([C@H](O)CC[C@H](O)CCCCC[C@@H](O)CC2=C[C@H](C)OC2=O)O1 [GONIOTETRACIN] | 0.021 (≈ 0.0336 µM) | 0.026 (≈ 0.0416 µM) | 0.2 (≈ 0.32 µM) | 0.39 (≈ 0.624 µM) | 1.7 (≈ 2.72 µM) | 1.5 (≈ 2.4 µM) | 1.5 (≈ 2.4 µM) | – | – | – | – |
| CCCCCCCCCCCCCC[C@H](O)CCCCCCC[C@H](O)CCCCC[C@@H](O)CC1=C[C@H](C)OC1=O [LONGANIN] | 0.4 (≈ 0.706 µM) | 0.011 (≈ 0.0194 µM) | 12 (≈ 21.2 µM) | 0.011 (≈ 0.0194 µM) | 3.4 (≈ 6 µM) | 0.61 (≈ 1.08 µM) | 0.039 (≈ 0.0688 µM) | – | – | – | – |
| CCCCCCCCCCCC[C@@H](O)[C@@H](O)CC[C@H](O)[C@@H]1CC[C@@H](C[C@@H](O)C[C@@H](O)CCC[C@@H](O)CC2=C[C@H](C)OC2=O)O1 [MURICOREACIN] | 0.025 (≈ 0.0398 µM) | 2.3 (≈ 3.66 µM) | 19 (≈ 30.2 µM) | 0.0023 (≈ 0.00366 µM) | 1.3 (≈ 2.07 µM) | 0.57 (≈ 0.906 µM) | 0.71 (≈ 1.13 µM) | – | – | – | – |
| CCCCCCCCCCCC[C@@H](O)[C@H]1CC[C@H]([C@H](O)CCCC(O)C(O)CCCCC[C@@H]2CC(CC(C)=O)C(=O)O2)O1 (stereo partly drawn) | 1.3 (≈ 2.12 µM) | < 0.01 | 4.8 (≈ 7.83 µM) | < 0.01 | 0.61 (≈ 0.995 µM) | < 0.01 | 0.12 (≈ 0.196 µM) | – | – | – | – |
| CCCCCCCCCCCC[C@@H](O)[C@H]1CC[C@H]([C@H](O)CCC[C@@H](O)[C@@H](O)CCCCC[C@@H](O)CC2=C[C@H](C)OC2=O)O1 [ANNOMURICIN E] | 0.15 (≈ 0.245 µM) | 0.24 (≈ 0.392 µM) | 18.4 (≈ 30 µM) | 0.11 (≈ 0.179 µM) | 0.15 (≈ 0.245 µM) | 0.67 (≈ 1.09 µM) | 1.4 (≈ 2.28 µM) | – | – | – | – |
| CCCCCCCCCCCC[C@H]1O[C@@H]([C@H](O)CCCC[C@H](O)CCCCC[C@@H](O)CC2=C[C@H](C)OC2=O)CC[C@H]1O [PYRANICIN] | 0.41 (≈ 0.687 µM) | 0.0013 (≈ 0.00218 µM) | 0.3 (≈ 0.503 µM) | 0.28 (≈ 0.469 µM) | 0.39 (≈ 0.653 µM) | 1.2 (≈ 2.01 µM) | 0.18 (≈ 0.302 µM) | – | – | – | – |
| CCCCCCCCCCCC[C@@H](O)[C@H]1CC[C@H]([C@H](O)CCCCCC[C@H](O)CCCCC[C@@H]2CC(CC(C)=O)C(=O)O2)O1 (mixture of isomers) | 1 | 0.68 | 0.31 | 2.6 | 3.2 | 0.26 | 1.4 | – | – | – | – |
| CCCCCCCCCC[C@@H]1O[C@H]([C@@H]2CC[C@H]([C@H](O)CCCCCCCCCC[C@@H](O)CC3=C[C@H](C)OC3=O)O2)CC[C@H]1O [JIMENEZIN] | – | – | 0.0057 (≈ 0.00915 µM) | 0.016 (≈ 0.0257 µM) | > 0.1 | 0.0043 (≈ 0.0069 µM) | 0.049 (≈ 0.0787 µM) | 2.8 | 1.7 | – | – |
| CCCCCCCCCC/C=C\CC[C@@H](O)[C@H]1CC[C@H]([C@H](O)CCCCCC(=O)CCCC[C@@H]2CC(CC(C)=O)C(=O)O2)O1 (stereo partly drawn) | 0.032 (≈ 0.0515 µM) | 0.22 (≈ 0.354 µM) | 0.44 (≈ 0.709 µM) | > 1 | > 1 | > 1 | > 1 | – | – | – | – |
| CCCCCCCCCC[C@H](O)[C@H]1CC[C@H]([C@H](O)CC[C@H](O)[C@@H]2CC[C@@H](CCCCC[C@@H](O)CC3=C[C@H](C)OC3=O)O2)O1 [TRILOBALICIN] | 0.98 (≈ 1.6 µM) | 0.28 (≈ 0.458 µM) | 5.8 (≈ 9.49 µM) | – | – | 2.3 (≈ 3.77 µM) | 0.006 (≈ 0.00982 µM) | – | – | 5.8 | 1.6 ×10⁻⁷ ug/ml |
| CCCCCCCCCCCC[C@H](O)[C@@H]1CC[C@H]([C@H](O)CCCCCC(O)CCCCCCC2=C[C@H](C)OC2=O)O1 (stereo partly drawn) | 2.1 (≈ 3.62 µM) | 1.1 (≈ 1.89 µM) | 6.8 (≈ 11.7 µM) | 2 (≈ 3.44 µM) | 1.7 (≈ 2.93 µM) | 1.4 (≈ 2.41 µM) | 1.8 (≈ 3.1 µM) | – | – | – | – |
| CCCCCCCCCCCCC(=O)C[C@@H]1C[C@@H](O)[C@@H](CC[C@H](O)[C@@H]2CC[C@@H](CCCCC[C@@H](O)CC3=C[C@H](C)OC3=O)O2)O1 [GONIOTRIOCIN] | 0.26 (≈ 0.408 µM) | 1.4 (≈ 2.2 µM) | 2.7 (≈ 4.24 µM) | 0.033 (≈ 0.0518 µM) | – | 0.0012 (≈ 0.00188 µM) | 1.1 (≈ 1.73 µM) | – | – | – | 3.3 ×10⁻⁵ ug/ml |
| CCCCCCCCCCCC/C=C\CC[C@@H](O)[C@H](O)CCCCCCC(=O)CCCCCCCC1=C[C@H](C)OC1=O [ANNOJAHNIN] | 0.016 (≈ 0.0271 µM) | 0.023 (≈ 0.0389 µM) | 11 (≈ 18.6 µM) | 1.5 (≈ 2.54 µM) | 2.8 (≈ 4.74 µM) | 0.059 (≈ 0.0998 µM) | 4.9 (≈ 8.29 µM) | – | – | – | – |

Source: ChEMBL document CHEMBL1141818, “Annonaceous acetogenins: recent progress” (J Nat Prod, 1999)
